{"source": "patent US20220308044A1", "about": "“NOVEL LIVE-CELL ASSAY FOR NEURONAL ACTIVITY” (UNIVERSITY OF UTAH RESEARCH FOUNDATION, priority 2019, published 2022)", "key": {"WT neurons": {"test_system": "WT neurons", "test": "Secreted Neuronal Activity Reporter (SNAR) dual secreted luciferase assay in primary neuronal cultures", "format": "cell-based, mouse", "settings": "for effect of individual inhibitors on SNAR activity: prolonged treatment, FIG. 3A"}, "CamKII neurons": {"test_system": "CamKII neurons", "test": "Cre-dependent (floxed) SNAR assay with CamKII:Cre", "format": "cell-based, mouse", "settings": "FIG. 6C", "description": "Plasmid Cloning. The SNAR construct was synthesized by first introducing 2 core SARE (cSARE) sequences into an AAV vector backbone that included the Arc minimal promoter and the Gaussia luciferase coding sequences using inFusion cloning. A single cSARE sequence was synthesized using a long primer that was then used as a PCR template. Two additional cSARE sequences were then added, one at a time preceding the first 2 cSAREs. The entire 4× cSARE-ArcMin-Gluc was then cloned as an insert into an FCK vector (Addgene, Watertown, Mass.; catalog no. 51694) using restriction enzymes PacI and EcoRI for use as a transfer plasmid and packaging into lentivirus particles. Secreted Nanoluciferase (sNluc) was obtained by adding the Ig-kappa signal peptide to its N-terminus using a long primer. sNluc was then inserted into an FCK vector with the hPGK promoter. Each construct was then cloned into a DIO vector backbone (Addgene, Watertown, Mass.; catalog no. 87168) to obtain a Cre-dependent expression construct. […]\nLuciferase Assays. To determine luciferase activity luminescencence from media samples was measured. […] For substrates, Coelenterazine (CTZ)-native (NanoLight Technology, Pinetope, Ariz.; catalog no. 303) and FMZ (Promega NanoGlo Assay; Promega, Madison, Wis.; catalog no. N1110) were added using a micro-injector connected to the plate reader (BioTek Synergy HT; Winooski, Vt.). […]"}}}
{"molecule": "N#Cc1cc2[nH]c(=O)c(=O)[nH]c2cc1[N+](=O)[O-]", "note": "[CNQX]", "values": [{"measurement": "time after treatment at which the increase in SNAR activity was observed", "setting": "WT neurons; kinetic analysis, chronic blockage of AMPAR-mediated transmission, FIG. 3B", "result": "16 to 40", "unit": "h"}, {"measurement": "effect of individual inhibitors on SNAR activity", "setting": "WT neurons", "result": "increased SNAR activity"}]}
{"molecule": "N#CC(=C(/N)Sc1ccccc1N)/C(C#N)=C(\\N)Sc1ccccc1N", "note": "[U0126]", "values": [{"measurement": "effect on SNAR activity / accumulation", "setting": "WT neurons", "result": "significantly suppressed SNAR accumulation"}]}
{"molecule": "NC(=O)N1c2ccccc2C=Cc2ccccc21", "note": "[CBZ, carbamazepine]", "values": [{"measurement": "effect on SNAR", "setting": "WT neurons; 50 μM, FIG. 4A", "result": "reduced SNAR"}]}
{"molecule": "NC(CCCP(=O)(O)O)C(=O)O", "note": "(centres unmarked) [AP5]", "values": [{"measurement": "effect on reporter accumulation", "setting": "CamKII neurons", "result": "decrease in reporter accumulation similar to that of the non-specific reporter"}, {"measurement": "effect of individual inhibitors on SNAR activity", "setting": "WT neurons", "result": "dramatically suppressed SNAR activity"}]}
{"molecule": "O=C1NC(=O)C(c2ccccc2)(c2ccccc2)N1", "note": "[phenytoin]", "values": [{"measurement": "effect on reporter activity", "setting": "WT neurons; 80 μM, at DIV14, FIG. 4A", "result": "significantly reduced reporter activity"}]}
{"molecule": "BDNF: a neurotropic factor that enhances synapse formation and transmission (protein, UniProt P23560 19-247, looked up) Neurotrophic factor BDNF …: APMKEANIRGQGGLAYPGVRTHGTLESVNGPKAGSRGLTSLADTFEHVIEELLDEDQKVRPNEENNKDADLYTSRVMLSSQVPLEPPLLFLLEEYKNYLDAANMSMRVRRHSDPARRGELSVCDSISEWVTAADKKTAVDMSGGTVTVLEKVPVSKGQLKQYFYETKCNPMGYTKEGCRGIDKRHWNSQCRTTQSYVRALTMDSKKRIGWRFIRIDTSCVCTLTIKRGR", "values": [{"measurement": "effect on reporter activity compared to a vehicle control", "setting": "WT neurons; 50 ng/mL, 16 hours and 40 hours after the treatment, FIG. 4B", "result": "significantly and robustly increased reporter activity"}]}
